Assay results taken from patent US20150368236A1, “2-(PYRIDIN-3-YL)-5-HETARYL-THIAZOLE COMPOUNDS CARRYING AN IMINE OR IMINE-DERIVED SUBSTITUENT FOR COMBATING INVERTEBRATE PESTS” (BASF SE, priority 2012, published 2015).

How the values were obtained:
Experiment in all cases: whole plant or invertebrate
Type in all cases: in vivo
[1] = test system: Cotton Aphid (Aphis gossypii); details: 120 h, infested cotton plants sprayed, after 5 days, read-out: mortality in comparison with untreated controls
Experimental: (§1) The active compounds were formulated in cyclohexanone as a 10′ 000 ppm solution supplied in 1.3 ml ABgene® tubes. These tubes were inserted into an automated electrostatic sprayer equipped with an atomizing nozzle and they served as stock solutions for which lower dilutions were made in 1:1 (vol:vol) water:aceton. A nonionic surfactant (Kinetic®) was included in the solution at a volume of 0.01% (v/v).
Cotton plants at the cotyledon stage were infested with aphids prior to treatment by placing a heavily infested leaf from the main aphid colony on top of each cotyledon. Aphids were allowed to transfer overnight to accomplish an infestation of 80-100 aphids per plant and the host leaf was removed. The infested plants were then sprayed by an automated electrostatic plant sprayer equipped with an atomizing spray nozzle. The plants were dried in the sprayer fume hood, removed from the sprayer, and then maintained in a growth room under fluorescent lighting in a 24-hr photoperiod at 25° C. and 20-40% relative humidity. Aphid mortality on the treated plants, relative to mortality on untreated control plants, was determined after 5 days.

[2] = test system: green peach aphid (Myzus persicae); details: 72 h, in aphid diet under artificial membrane, adult aphids, 3 days, read-out: mortality in comparison with untreated controls
From the text: For evaluating control of green peach aphid (Myzus persicae) through systemic means the test unit consisted of 96-well-microtiter plates containing liquid artificial diet under an artificial membrane.
The compounds were formulated using a solution containing 75% v/v water and 25% v/v DMSO. Different concentrations of formulated compounds were pipetted into the aphid diet, using a custom built pipetter, at two replications.
After application, 5 to 8 adult aphids were placed on the artificial membrane inside the microtiter plate wells. The aphids were then allowed to suck on the treated aphid diet and were incubated at about 23±1° C. and about 50±5% relative humidity for 3 days. Aphid mortality and fecundity was then visually assessed.

[3] = test system: Silverleaf Whitefly (Bemisia Argentifolii); details: 72 h, sprayed cotton plants, whitefly adults, 3 days after treatment, read-out: mortality in comparison with untreated controls
Experimental: as §1, with “10,000” for “10′ 000”
Cotton plants at the cotyledon stage (one plant per pot) were sprayed by an automated electrostatic plant sprayer equipped with an atomizing spray nozzle. The plants were dried in the sprayer fume hood and then removed from the sprayer. Each pot was placed into a plastic cup and 10 to 12 whitefly adults (approximately 3 to 5 days old) were introduced. The insects were collected using an aspirator and 0.6 cm, nontoxic Tygon® tubing (R-3603) connected to a barrier pipette tip. The tip, containing the collected insects, was then gently inserted into the soil containing the treated plant, allowing insects to crawl out of the tip to reach the foliage for feeding. Cups were covered with a reusable screened lid (150-micron mesh polyester screen PeCap from Tetko, Inc.). […] Mortality was assessed 3 days after treatment, compared to untreated control plants.

[4] = test system: vetch aphid (Megoura viciae); details: foliar, 120 h, sprayed broad bean leaf disks, adult aphids, 5 days, read-out: mortality in comparison with untreated controls
Experimental: For evaluating control of vetch aphid (Megoura viciae) through contact or systemic means the test unit consisted of 24-well-microtiter plates containing broad bean leaf disks.
The compounds were formulated using a solution containing 75% v/v water and 25% v/v DMSO. Different concentrations of formulated compounds were sprayed onto the leaf disks at 2.5 μl, using a custom built micro atomizer, at two replications.
After application, the leaf disks were air-dried and 5 to 8 adult aphids were placed on the leaf disks inside the microtiter plate wells. The aphids were then allowed to suck on the treated leaf disks and were incubated at about 23±1° C. and about 50±5% relative humidity for 5 days. Aphid mortality and fecundity were then visually assessed.

[5] = test system: Cowpea Aphid (Aphis craccivora); details: colonized cowpea plants sprayed, population reduction assessed after 24, 72 and 120 hours, read-out: mortality in comparison with untreated controls
Experimental: The active compound was dissolved at the desired concentration in a mixture of 1:1 (vol:vol) distilled water:acetone. The test solution was prepared at the day of use. Potted cowpea plants colonized with approximately 100 to 150 aphids of various stages were sprayed after the pest population had been recorded. Population reduction was assessed after 24, 72, and 120 hours.

CON=Cc1cccc(-c2cnc(-c3cccnc3)s2)n1 [Compound 1-1, 6-(2-Pyridin-3-yl-thiazol-5-yl)-pyridine-2-carbaldehyde-O-methyloxime]
≥ 75%: mortality at 300 ppm [1] | mortality at 800 ppm [2] | mortality at 300 ppm [3] | mortality at 800 ppm [4] | mortality at 300 ppm [5]

C(=NOc1ccccc1)c1cccc(-c2cnc(-c3cccnc3)s2)n1 [Compound 1-10, 6-(2-Pyridin-3-yl-thiazol-5-yl)-pyridine-2-carbaldehyde-O-phenyloxime]
≥ 75%: mortality at 800 ppm [4] | mortality at 300 ppm [5]
